Legend:
A. fumigatus 20030 = assay: Mouse respiratory infection model; type: in vivo, Aspergillus fumigatus; settings: male ICR mice given cyclophosphamide, compound intravenously, lives and deaths observed over 10 days
Description: Effect to Mouse Respiratory Infection Model
4-week old male ICR mice were used so as to be eight mice in a group. 200 mg/kg of cyclophosphamide is intraperitoneally administered into mice at 4 days before infection and 1 day after infection. Conidium liquid (0.05 mL: approximately 2.2×10^6) of A. fumigatus 20030 suspended in physiological saline was inoculated from respiratory passages of mice to cause respiratory infection. The compound was administered intravenously for 2 hours to 4 days after the infection. The lives and deaths of the mice were observed over a 10 day period starting from the next day.

[1] = test system: C. albicans (Candida albicans); assay: MIC in human serum by microdilution, C. albicans; type: cell-based; settings: human serum buffered with 20 mM HEPES pH 7.3; 37° C., 24 hours, 5% CO2; geometric mean of three clinical cell lines; growth completely inhibited
Description: (§1) Measurement of Susceptibility to C. albicans (Candida albicans) and A. fumigatus (Aspergillus fumigatus) By the microdilution method where human serum buffered with 20 mM-HEPES buffer (pH 7.3) was used as a test medium, MIC (minimum inhibitory concentration) in human serum was determined. The inoculum suspension of 10^6 cells/mL was prepared by a hemocytometric procedure to obtain an inoculum size of approximately 5×10^3 to 2×10^4cells/mL. Microplates were incubated at 37° C. for 24 hours under 5% CO2 atmosphere. […] The values were shown as geometric mean of MIC with reference to three of clinical cell lines.

[2] = test system: A. fumigatus (Aspergillus fumigatus); assay: MIC in human serum by microdilution, A. fumigatus; type: cell-based; settings: human serum buffered with 20 mM HEPES pH 7.3; 37° C., 24 hours, 5% CO2; geometric mean of three clinical cell lines; growth sufficiently inhibited versus growth control
Description: as §1

COc1cc(C[C@@H](O)[C@@H]2NC(=O)[C@@H]3C[C@@H](O)CN3C(=O)[C@H]([C@@H](C)O)NC(=O)[C@@H](NC[C@H]3CC[C@H](c4nnc(-c5ccc(N6CCC(OC)(C7CCCCC7)CC6)cc5)s4)CC3)C[C@@H](O)CNC(=O)[C@@H]3[C@@H](O)[C@@H](C)CN3C(=O)[C@H]([C@H](O)CCN)NC2=O)ccc1O [Ex 1]
Infection experiments ED50 A. fumigatus (A. fumigatus 20030): <0.3 mg/kg

COc1cc(C[C@@H](O)[C@@H]2NC(=O)[C@@H]3C[C@@H](O)CN3C(=O)[C@H]([C@@H](C)O)NC(=O)[C@@H](NC[C@H]3CC[C@H](c4nnc(-c5ccc(N6CCC(OC)(C7CCCCC7)CC6)cc5)s4)CC3)C[C@@H](O)CNC(=O)[C@@H]3[C@@H](O)[C@@H](C)CN3C(=O)[C@H]([C@H](O)CCNC(CO)CO)NC2=O)ccc1O [Ex 6]
Infection experiments ED50 A. fumigatus (A. fumigatus 20030): 0.44 mg/kg

C[C@@H](O)[C@@H]1NC(=O)[C@@H](NCC2CCN(c3nnc(-c4ccc(-c5cnc(N6CCC(OC7CCCCC7)CC6)nc5)cc4)s3)CC2)C[C@@H](O)CNC(=O)[C@@H]2[C@@H](O)[C@@H](C)CN2C(=O)[C@H]([C@H](O)CC(=O)NCCN)NC(=O)[C@H]([C@H](O)Cc2ccc(O)c(OS(=O)(=O)O)c2)NC(=O)[C@@H]2C[C@@H](O)CN2C1=O [Ex 30]
MIC (mean of three cell lines) C. albicans [1]: 0.4 µg/mL | MIC (mean of three cell lines) A. fumigatus [2]: 0.32 µg/mL

C[C@@H](O)[C@@H]1NC(=O)[C@@H](NC[C@H]2CC[C@H](c3nnc(-c4ccc(N5CCC(OC6CCCCC6)CC5)cc4)s3)CC2)C[C@@H](O)CNC(=O)[C@@H]2[C@@H](O)[C@@H](C)CN2C(=O)[C@H]([C@H](O)CCNC(CO)CO)NC(=O)[C@H]([C@H](O)Cc2ccc(O)c(OS(=O)(=O)O)c2)NC(=O)[C@@H]2C[C@@H](O)CN2C1=O [Ex 33]
Infection experiments ED50 A. fumigatus (A. fumigatus 20030): 0.39 mg/kg
